{
  "source": "patent US11518754B2",
  "about": "“Radiolabeled pharmaceuticals and methods of making and using same” (YALE UNIVERSITY, priority 2017, dated 2022)",
  "key": {"SV2A [1]": {"molecular_target": "T1, SV2A (Homo sapiens (Human), UniProt Q7L0J3)", "T1 sequence (Q7L0J3 whole entry, looked up)": "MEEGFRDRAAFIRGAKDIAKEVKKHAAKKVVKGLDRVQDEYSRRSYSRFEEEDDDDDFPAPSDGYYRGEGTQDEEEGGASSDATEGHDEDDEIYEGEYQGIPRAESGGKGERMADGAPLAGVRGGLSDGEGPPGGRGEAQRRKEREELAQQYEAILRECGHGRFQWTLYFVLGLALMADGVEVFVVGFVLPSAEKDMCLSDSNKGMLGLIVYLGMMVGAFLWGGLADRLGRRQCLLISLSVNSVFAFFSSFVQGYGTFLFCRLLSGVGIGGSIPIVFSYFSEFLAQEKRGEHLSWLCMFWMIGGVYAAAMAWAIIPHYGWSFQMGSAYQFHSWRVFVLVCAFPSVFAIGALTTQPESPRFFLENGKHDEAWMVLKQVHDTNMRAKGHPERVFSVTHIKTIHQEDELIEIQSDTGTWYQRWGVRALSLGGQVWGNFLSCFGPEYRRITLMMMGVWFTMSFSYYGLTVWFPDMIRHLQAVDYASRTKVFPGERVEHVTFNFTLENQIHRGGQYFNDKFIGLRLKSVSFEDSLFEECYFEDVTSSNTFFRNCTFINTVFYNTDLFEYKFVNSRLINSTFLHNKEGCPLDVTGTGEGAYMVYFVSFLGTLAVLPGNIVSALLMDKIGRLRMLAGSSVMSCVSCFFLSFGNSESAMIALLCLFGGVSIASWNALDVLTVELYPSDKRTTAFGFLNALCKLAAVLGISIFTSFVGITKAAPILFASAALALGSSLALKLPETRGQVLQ", "assay": "PET imaging with (R)-11C-3 in patients with temporal lobe epilepsy", "protocol": "PET imaging with (R)-^11C-3 was performed in healthy human subjects and patients with various disorders to determine if SV2A imaging can be used as an in vivo biomarker to detect changes in synaptic density in human diseases.\nPET imaging with (R)-^11C-3 was carried out in ten healthy control subjects and nine patients of temporal lobe epilepsy (TLE) with mesial temporal sclerosis (MTS)."}, "SV2A [2]": {"molecular_target": "SV2A (Papio anubis, UniProt A0A096NYL0)", "sequence (A0A096NYL0 1-742)": "as the sequence (Q7L0J3 whole entry, looked up) above, with G64S, G108S, I572V counted along it", "assay": "PET measurement in an olive baboon", "assay_type": "in vivo, olive baboon (Papio anubis)", "details": "gray matter regions, baboon brain", "experimental": "Experiments were conducted in one olive baboon (P. anubis). […] PET images of the brain were acquired using a Siemens Biograph mCT system (Siemens Medical Solutions). […] List-mode data were acquired for 120 min and binned into sinograms with the following frame timing: 6×30 sec; 3×1 min; 2×2 min; and 22×5 min.\nPET data were reconstructed with a TrueX+TOF algorithm with corrections for attenuation, normalization, scatter and randoms. Regions of interest (ROIs) were manually delineated on a single representative anatomical baboon magnetic resonance image (MRI) registered to a template image. […] MRI-to-PET registration parameters were obtained to apply the ROIs to individual PET scans, and regional time-activity curves (TACs) were generated. VT values were estimated using a one-tissue (1T) compartment model with the metabolite-corrected input function.\nArterial blood samples were collected to determine the plasma input function, including measurement of the unmetabolized ^11C-3 fraction. The free fraction of ^11C-3 in plasma was determined in arterial blood samples taken immediately before ^11C-3 injection."}, "SV2A [3]": {"molecular_target": "T1, SV2A", "assay": "PET imaging with (R)-11C-3 in patients with Parkinson's disease", "assay_type": "in vivo", "details": "PD subjects vs age-matched healthy controls"}, "SV2A [4]": {"molecular_target": "SV2A (Macaca mulatta, UniProt H9EQH8)", "sequence (H9EQH8 1-742)": "as the sequence (Q7L0J3 whole entry, looked up) above, with G64S, I572V counted along it", "assay": "PET imaging studies in rhesus monkeys", "details": "for Binding potential (BPND): from VT, centrum semiovale as reference region", "experimental": "Experiments were performed in rhesus monkeys (Macaca mulatta). Rhesus monkeys were sedated using intramuscular (i.m.) injection of ketamine and glycopyrrolate approximately 2 hours before the PET scan and anesthesia was maintained with isoflurane (1.5%-2.5%) for the duration of the experiments. Baseline PET scans were obtained after intravenous (i.v.) injection of ^11C-3, ^18F-3, ^18F-4, ^18F-5, ^18F-10, ^18F-11, or ^18F-12.\nArterial blood samples were collected during the PET scans to calculate the plasma input function and to determine the unmetabolized parent fraction using the automatic column-switching HPLC system. Plasma free fraction (fp) was measured in triplicate using the ultrafiltration method.\nPET scans of the brain were acquired using the FOCUS 220 PET scanner (Siemens Preclinical Solutions) with a reconstructed image resolution of approximately 1.5 mm. After a transmission scan, the radioligand was injected i.v. as a 3 min slow bolus by an infusion pump (PHD 22/2000; Harvard Apparatus). List-mode data were acquired for 120-180 min and binned into sinograms with an applicable number of frames. Scan data were reconstructed with a Fourier rebinning/filtered backprojection algorithm with corrections for attenuation, scanner normalization, radiation scatter, and randoms. Regions of interest were manually delineated on a single representative anatomic rhesus monkey MR image registered to a template image. The regions used in this study were amygdala, brain stem, caudate, centrum semiovale, cerebellum, cingulate cortex, frontal cortex, globus pallidus, insular cortex, nucleus accumbens, occipital cortex, pons, putamen, temporal cortex, and thalamus. Registration parameters were obtained to apply the regions of interest to individual PET scans, and regional time-activity curves were generated. Regional time-activity curves of the brain were analyzed with the 1-tissue-(1T) compartment model. Fit quality was compared with the 2-tissue model and the multilinear analysis method to calculate VT.\nTypical injected radioactivity amount was 0.5-5 mCi per injection, with typical injected mass amount of 1-10 μg.\nSpecific binding to SV2A was further examined for ^11C-3, ^18F-3, and ^18F-11 in blocking studies, where levetiracetam or UCB-J ((R)-3) was i.v. infused before injection of the radiotracers."}, "[5]": {"assay": "Plasma free fraction (fp) by ultrafiltration method", "assay_type": "in vitro ADME, rhesus monkeys (Macaca mulatta)", "details": "plasma (from arterial blood samples), rhesus monkey plasma"}, "SV2A [6]": {"molecular_target": "T1, SV2A", "assay": "PET imaging with (R)-11C-3 in patients with AD dementia and MCI", "assay_type": "in vivo", "details": "AD/MCI patients vs cognitively normal subjects"}},
  "note": "Several values for one entry are separate records, joined by “and”; a condition that tells them apart may be missing. Equal entries are not always repeated.",
  "data": [
    {"compound": "Cc1cnccc1CN1CC(c2cc(F)c(F)c(F)c2)CC1=O", "note": "(single isomer, unassigned) [^11C-3, 1-((3-methylpyridin-4-yl)methyl)-4-(3,4,5-trifluorophenyl) pyrrolidin-2-one]", "values": [
      {"measurement": "asymmetries in binding relative to 18F-FDG", "setting": "SV2A [1]; TLE subjects with MTS", "value": 2.3, "unit": "fold"},
      {"measurement": "BPND asymmetry indices", "setting": "SV2A [1]; hippocampus, nine TLE subjects with MTS", "value": "−38±21", "unit": "%"},
      {"measurement": "peak uptake (standardized uptake value, SUV)", "setting": "SV2A [2]", "value": "10-15"},
      {"measurement": "time to peak uptake after injection", "setting": "SV2A [2]", "value": "6 to 16", "unit": "min"},
      {"measurement": "decrease in BPND", "setting": "SV2A [3]; cortical regions", "value": "16%-20%"},
      {"measurement": "decrease in VT", "setting": "SV2A [3]; cortical regions, listed as (R)-^11C-3", "value": "19-23% and 19%-23%"},
      {"measurement": "decrease in BPND", "setting": "SV2A [3]; putamen", "value": 16, "unit": "%"},
      {"measurement": "decrease in VT", "setting": "SV2A [3]; putamen", "value": 15, "unit": "%"},
      {"measurement": "decrease in BPND", "setting": "SV2A [3]; substantia nigra", "value": 33, "unit": "%"},
      {"measurement": "decrease in VT", "setting": "SV2A [3]; substantia nigra", "value": 19, "unit": "%"},
      {"measurement": "Binding potential (BPND)", "setting": "SV2A [4]; Amygdala", "value": "0.85 ± 0.34"},
      {"measurement": "Binding potential (BPND)", "setting": "SV2A [4]; Brainstem", "value": "0.76 ± 0.21"},
      {"measurement": "Binding potential (BPND)", "setting": "SV2A [4]; Caudate nucleus", "value": "2.40 ± 0.72"},
      {"measurement": "Binding potential (BPND)", "setting": "SV2A [4]; Cerebellum", "value": "1.68 ± 0.31"},
      {"measurement": "Binding potential (BPND)", "setting": "SV2A [4]; Cingulate cortex", "value": "3.17 ± 0.84"},
      {"measurement": "Binding potential (BPND)", "setting": "SV2A [4]; Frontal cortex", "value": "3.18 ± 0.91"},
      {"measurement": "Binding potential (BPND)", "setting": "SV2A [4]; Globus pallidus", "value": "1.10 ± 0.28"},
      {"measurement": "Binding potential (BPND)", "setting": "SV2A [4]; Hippocampus", "value": "1.59 ± 0.39"},
      {"measurement": "Binding potential (BPND)", "setting": "SV2A [4]; Insular cortex", "value": "3.12 ± 0.81"},
      {"measurement": "Binding potential (BPND)", "setting": "SV2A [4]; Nucleus accumbens", "value": "3.04 ± 0.69"},
      {"measurement": "Binding potential (BPND)", "setting": "SV2A [4]; Occipital cortex", "value": "2.97 ± 0.65"},
      {"measurement": "Binding potential (BPND)", "setting": "SV2A [4]; Pons", "value": "0.75 ± 0.21"},
      {"measurement": "Binding potential (BPND)", "setting": "SV2A [4]; Putamen", "value": "2.42 ± 0.63"},
      {"measurement": "Binding potential (BPND)", "setting": "SV2A [4]; Temporal cortex", "value": "2.79 ± 0.61"},
      {"measurement": "Binding potential (BPND)", "setting": "SV2A [4]; Thalamus", "value": "2.03 ± 0.62"},
      {"measurement": "Uptake of radiotracer in blocking studies", "setting": "SV2A [4]; levetiracetam (30 mg/kg) or UCB-J (150 μg/kg) i.v. 10 min before radiotracer injection", "value": "reduced to background levels"},
      {"measurement": "time to SUV peak in gray matter regions", "setting": "SV2A [4]; rhesus monkey, in vivo, iv", "value": "slower"},
      {"measurement": "fraction unbound", "setting": "[5]", "value": "0.44 ± 0.01"},
      {"measurement": "reduction in hippocampal VT", "setting": "SV2A [6]; P=0.001", "value": 28, "unit": "%"},
      {"measurement": "reduction in hippocampal SV2A binding (BPND)", "setting": "SV2A [6]; P=0.005", "value": 41, "unit": "%"}
    ]}
  ]
}
